Reference: ChEMBL document CHEMBL4507267 (2021)

Experiments:
[1] = target: Phosphatidylinositol 3-kinase C2 domain-containing subunit gamma (Homo sapiens) (UniProt O75747); settings: Compound concentration 1000.0 nM
[2] = target: Testis-specific serine/threonine-protein kinase 1 (Homo sapiens) (UniProt Q9BXA7); settings: Compound concentration 1000.0 nM
[3] = target: Mitotic checkpoint serine/threonine-protein kinase BUB1 (Homo sapiens) (UniProt O43683); settings: Compound concentration 1000.0 nM
[4] = target: cAMP-dependent protein kinase catalytic subunit alpha (Homo sapiens) (UniProt P17612); settings: Compound concentration 1000.0 nM
[5] = target: Phosphorylase b kinase regulatory subunit alpha, liver isoform (Homo sapiens) (UniProt P46019); settings: Compound concentration 1000.0 nM
[6] = target: Mast/stem cell growth factor receptor Kit (Homo sapiens) (UniProt P10721); settings: Compound concentration 1000.0 nM
Mast/stem cell growth factor receptor Kit (Homo sapiens), sequence (P10721 whole entry): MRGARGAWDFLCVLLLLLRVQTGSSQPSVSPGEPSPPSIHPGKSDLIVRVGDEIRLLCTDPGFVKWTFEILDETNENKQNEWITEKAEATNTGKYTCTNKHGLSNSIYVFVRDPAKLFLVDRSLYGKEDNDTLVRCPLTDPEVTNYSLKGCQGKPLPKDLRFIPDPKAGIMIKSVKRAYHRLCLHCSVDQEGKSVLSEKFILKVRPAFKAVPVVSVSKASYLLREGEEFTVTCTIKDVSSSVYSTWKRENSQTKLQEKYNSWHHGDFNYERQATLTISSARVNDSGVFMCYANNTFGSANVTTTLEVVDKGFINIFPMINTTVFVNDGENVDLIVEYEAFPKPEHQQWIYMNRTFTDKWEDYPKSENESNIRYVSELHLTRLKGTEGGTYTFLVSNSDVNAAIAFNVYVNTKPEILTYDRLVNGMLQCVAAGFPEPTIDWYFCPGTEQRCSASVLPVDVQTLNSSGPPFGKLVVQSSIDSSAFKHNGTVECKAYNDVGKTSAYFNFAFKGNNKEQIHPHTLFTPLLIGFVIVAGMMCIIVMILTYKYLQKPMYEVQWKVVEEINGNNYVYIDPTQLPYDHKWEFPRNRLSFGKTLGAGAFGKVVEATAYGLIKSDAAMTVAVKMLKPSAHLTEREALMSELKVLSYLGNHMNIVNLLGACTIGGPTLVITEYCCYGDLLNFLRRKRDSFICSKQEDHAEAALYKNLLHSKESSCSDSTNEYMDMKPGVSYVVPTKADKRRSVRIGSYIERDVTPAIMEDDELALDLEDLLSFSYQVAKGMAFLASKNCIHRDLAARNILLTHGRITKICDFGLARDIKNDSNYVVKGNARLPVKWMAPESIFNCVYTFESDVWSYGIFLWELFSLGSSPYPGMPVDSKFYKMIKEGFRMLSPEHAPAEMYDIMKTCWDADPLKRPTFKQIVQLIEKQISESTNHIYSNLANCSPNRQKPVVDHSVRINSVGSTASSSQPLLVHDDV

[7] = target: Myosin-IIIb (Homo sapiens) (UniProt Q8WXR4); settings: Compound concentration 1000.0 nM
[8] = target: Alpha-2A adrenergic receptor (Homo sapiens) (UniProt P08913); settings: Compound concentration 10.0 uM
[9] = target: Mitogen-activated protein kinase 3 (Homo sapiens) (UniProt P27361); settings: Compound concentration 1000.0 nM
[10] = target: 5-hydroxytryptamine receptor 5A (Homo sapiens) (UniProt P47898); settings: Compound concentration 10.0 uM
[11] = target: RAC-beta serine/threonine-protein kinase (Homo sapiens) (UniProt P31751); settings: Compound concentration 1000.0 nM
[12] = target: Casein kinase I isoform gamma-2 (Homo sapiens) (UniProt P78368); settings: Compound concentration 1000.0 nM
[13] = target: Serine/threonine-protein kinase ULK2 (Homo sapiens) (UniProt Q8IYT8); settings: Compound concentration 1000.0 nM
[14] = target: Membrane-associated tyrosine- and threonine-specific cdc2-inhibitory kinase (Homo sapiens) (UniProt Q99640); settings: Compound concentration 1000.0 nM
[15] = target: Mitogen-activated protein kinase kinase kinase 2 (Homo sapiens) (UniProt Q9Y2U5); settings: Compound concentration 1000.0 nM
[16] = test system: Epidermal growth factor receptor (Homo sapiens), P00533 [UNDEFINED MUTATION]; settings: Compound concentration 1000.0 nM
[17] = test system: Mast/stem cell growth factor receptor Kit (Homo sapiens), P10721 [V559D]; settings: Compound concentration 1000.0 nM
Mast/stem cell growth factor receptor Kit (Homo sapiens), P10721 [V559D], sequence (P10721 whole entry V559D, canonical isoform): as the sequence (P10721 whole entry) above, with V559D counted along it

[18] = target: Casein kinase I isoform epsilon (Homo sapiens) (UniProt P49674); settings: Compound concentration 1000.0 nM
[19] = target: Serine/threonine-protein kinase Nek11 (Homo sapiens) (UniProt Q8NG66); settings: Compound concentration 1000.0 nM
[20] = test system: Serine/threonine-protein kinase B-raf (Homo sapiens), P15056 [V600E]; settings: Compound concentration 1000.0 nM
[21] = target: Ephrin type-A receptor 7 (Homo sapiens) (UniProt Q15375); settings: Compound concentration 1000.0 nM
[22] = target: Aurora kinase C (Homo sapiens) (UniProt Q9UQB9); settings: Compound concentration 1000.0 nM
Aurora kinase C (Homo sapiens), sequence (Q9UQB9 whole entry): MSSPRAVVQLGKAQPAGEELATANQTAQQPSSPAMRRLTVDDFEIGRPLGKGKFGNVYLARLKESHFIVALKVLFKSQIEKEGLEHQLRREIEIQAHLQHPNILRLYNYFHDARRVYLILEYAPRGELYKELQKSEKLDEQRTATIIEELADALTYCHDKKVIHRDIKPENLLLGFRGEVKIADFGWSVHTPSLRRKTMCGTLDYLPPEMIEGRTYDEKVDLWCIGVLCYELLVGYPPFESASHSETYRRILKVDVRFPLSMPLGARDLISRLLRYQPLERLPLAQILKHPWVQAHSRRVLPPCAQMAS

[23] = target: Serine/threonine-protein kinase 24 (Homo sapiens) (UniProt Q9Y6E0); settings: Compound concentration 1000.0 nM
Serine/threonine-protein kinase 24 (Homo sapiens), sequence (Q9Y6E0 whole entry, looked up): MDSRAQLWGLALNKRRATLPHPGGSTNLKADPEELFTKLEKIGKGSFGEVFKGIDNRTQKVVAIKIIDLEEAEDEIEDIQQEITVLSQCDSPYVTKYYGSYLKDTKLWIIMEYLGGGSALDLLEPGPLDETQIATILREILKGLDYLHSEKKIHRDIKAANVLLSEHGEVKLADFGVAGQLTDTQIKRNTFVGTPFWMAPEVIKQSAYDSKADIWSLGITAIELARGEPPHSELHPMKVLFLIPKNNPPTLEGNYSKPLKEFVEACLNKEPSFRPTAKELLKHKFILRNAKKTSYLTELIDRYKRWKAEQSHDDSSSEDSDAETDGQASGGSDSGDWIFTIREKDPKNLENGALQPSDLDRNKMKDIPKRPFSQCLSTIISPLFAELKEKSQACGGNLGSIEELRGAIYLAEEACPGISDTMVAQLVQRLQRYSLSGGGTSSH

[24] = target: Peripheral plasma membrane protein CASK (Homo sapiens) (UniProt O14936); settings: Compound concentration 1000.0 nM
[25] = target: Serine/threonine-protein kinase PAK 6 (Homo sapiens) (UniProt Q9NQU5); settings: Compound concentration 1000.0 nM
Serine/threonine-protein kinase PAK 6 (Homo sapiens), sequence (Q9NQU5 whole entry, looked up): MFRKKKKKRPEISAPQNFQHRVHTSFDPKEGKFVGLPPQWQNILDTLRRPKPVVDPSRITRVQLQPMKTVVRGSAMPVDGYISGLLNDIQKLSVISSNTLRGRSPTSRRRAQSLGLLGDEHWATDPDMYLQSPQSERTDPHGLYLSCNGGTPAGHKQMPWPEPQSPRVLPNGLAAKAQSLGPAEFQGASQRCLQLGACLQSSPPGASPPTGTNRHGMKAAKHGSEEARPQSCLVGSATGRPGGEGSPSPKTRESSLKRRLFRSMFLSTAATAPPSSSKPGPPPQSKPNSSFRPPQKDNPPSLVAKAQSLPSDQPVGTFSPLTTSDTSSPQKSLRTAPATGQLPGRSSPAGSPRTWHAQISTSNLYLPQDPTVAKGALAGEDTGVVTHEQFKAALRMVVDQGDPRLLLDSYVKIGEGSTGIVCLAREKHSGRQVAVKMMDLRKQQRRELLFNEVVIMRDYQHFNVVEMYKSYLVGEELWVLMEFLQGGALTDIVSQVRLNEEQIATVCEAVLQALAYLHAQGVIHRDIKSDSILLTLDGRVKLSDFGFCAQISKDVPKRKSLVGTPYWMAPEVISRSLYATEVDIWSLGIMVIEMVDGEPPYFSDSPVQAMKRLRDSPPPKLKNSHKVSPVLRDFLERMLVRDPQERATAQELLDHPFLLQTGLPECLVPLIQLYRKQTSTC

[26] = target: Serine/threonine-protein kinase PLK3 (Homo sapiens) (UniProt Q9H4B4); settings: Compound concentration 1000.0 nM
[27] = target: Dual specificity mitogen-activated protein kinase kinase 3 (Homo sapiens) (UniProt P46734); settings: Compound concentration 1000.0 nM
[28] = target: Mitogen-activated protein kinase kinase kinase 3 (Homo sapiens) (UniProt Q99759); settings: Compound concentration 1000.0 nM
[29] = test system: Mast/stem cell growth factor receptor Kit (Homo sapiens), P10721 [D816V]; settings: Compound concentration 1000.0 nM
Mast/stem cell growth factor receptor Kit (Homo sapiens), P10721 [D816V], sequence (P10721 whole entry D816V): as the sequence (P10721 whole entry) above, with D816V counted along it

[30] = target: Cyclin-dependent kinase-like 3 (Homo sapiens) (UniProt Q8IVW4); settings: Compound concentration 1000.0 nM
[31] = test system: Tyrosine-protein kinase ABL1 (Homo sapiens), P00519 [H396P]; settings: Compound concentration 1000.0 nM
[32] = test system: Epidermal growth factor receptor (Homo sapiens), P00533 [UNDEFINED MUTATION]; settings: Compound concentration 1000.0 nM; remark: listed apart in the source
[33] = target: Serine/threonine-protein kinase mTOR (Homo sapiens) (UniProt P42345); settings: Compound concentration 1000.0 nM
[34] = target: NUAK family SNF1-like kinase 1 (Homo sapiens) (UniProt O60285); settings: Compound concentration 1000.0 nM
[35] = test system: Epidermal growth factor receptor (Homo sapiens), P00533 [L861Q]; settings: Compound concentration 1000.0 nM
[36] = test system: Hepatocyte growth factor receptor (Homo sapiens), P08581 [Y1235D]; settings: Compound concentration 1000.0 nM
[37] = target: Mitogen-activated protein kinase 9 (Homo sapiens) (UniProt P45984); settings: Compound concentration 1000.0 nM
[38] = target: Ribosomal protein S6 kinase alpha-3 (Homo sapiens) (UniProt P51812); settings: Compound concentration 1000.0 nM
[39] = target: Misshapen-like kinase 1 (Homo sapiens) (UniProt Q8N4C8); settings: Compound concentration 1000.0 nM
[40] = target: Mitogen-activated protein kinase 12 (Homo sapiens) (UniProt P53778); settings: Compound concentration 1000.0 nM
[41] = target: Mitogen-activated protein kinase kinase kinase 14 (Homo sapiens) (UniProt Q99558); settings: Compound concentration 1000.0 nM
Mitogen-activated protein kinase kinase kinase 14 (Homo sapiens), sequence (Q99558 whole entry, looked up): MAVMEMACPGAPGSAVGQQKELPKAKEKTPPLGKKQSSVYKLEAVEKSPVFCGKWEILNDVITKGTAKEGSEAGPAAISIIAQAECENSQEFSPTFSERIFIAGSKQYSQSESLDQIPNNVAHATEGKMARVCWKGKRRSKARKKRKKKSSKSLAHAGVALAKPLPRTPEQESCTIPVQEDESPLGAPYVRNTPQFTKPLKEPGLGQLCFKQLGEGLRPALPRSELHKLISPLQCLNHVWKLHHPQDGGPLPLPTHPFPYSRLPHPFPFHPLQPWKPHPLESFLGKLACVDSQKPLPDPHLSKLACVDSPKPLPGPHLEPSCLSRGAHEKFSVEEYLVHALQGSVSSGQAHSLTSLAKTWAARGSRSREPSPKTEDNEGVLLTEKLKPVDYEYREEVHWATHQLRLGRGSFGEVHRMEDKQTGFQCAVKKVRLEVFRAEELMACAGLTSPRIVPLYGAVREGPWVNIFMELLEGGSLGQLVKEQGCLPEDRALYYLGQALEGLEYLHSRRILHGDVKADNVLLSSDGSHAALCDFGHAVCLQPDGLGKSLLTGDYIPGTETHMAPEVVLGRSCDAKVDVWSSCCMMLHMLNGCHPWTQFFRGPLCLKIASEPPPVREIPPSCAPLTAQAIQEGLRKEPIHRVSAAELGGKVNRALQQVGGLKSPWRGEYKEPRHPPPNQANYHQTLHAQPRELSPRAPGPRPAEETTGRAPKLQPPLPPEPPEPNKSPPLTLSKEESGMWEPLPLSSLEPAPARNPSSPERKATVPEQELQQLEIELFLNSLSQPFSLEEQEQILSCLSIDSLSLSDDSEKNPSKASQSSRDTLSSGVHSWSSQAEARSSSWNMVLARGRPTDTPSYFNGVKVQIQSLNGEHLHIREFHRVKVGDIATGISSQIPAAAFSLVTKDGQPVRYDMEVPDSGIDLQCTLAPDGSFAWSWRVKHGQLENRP

[42] = target: Serine/threonine-protein kinase WNK3 (Homo sapiens) (UniProt Q9BYP7); settings: Compound concentration 1000.0 nM
[43] = target: Casein kinase I isoform gamma-3 (Homo sapiens) (UniProt Q9Y6M4); settings: Compound concentration 1000.0 nM
[44] = target: Insulin-like growth factor 1 receptor (Homo sapiens) (UniProt P08069); settings: Compound concentration 1000.0 nM
Insulin-like growth factor 1 receptor (Homo sapiens), sequence (P08069 31-736 limits assumed): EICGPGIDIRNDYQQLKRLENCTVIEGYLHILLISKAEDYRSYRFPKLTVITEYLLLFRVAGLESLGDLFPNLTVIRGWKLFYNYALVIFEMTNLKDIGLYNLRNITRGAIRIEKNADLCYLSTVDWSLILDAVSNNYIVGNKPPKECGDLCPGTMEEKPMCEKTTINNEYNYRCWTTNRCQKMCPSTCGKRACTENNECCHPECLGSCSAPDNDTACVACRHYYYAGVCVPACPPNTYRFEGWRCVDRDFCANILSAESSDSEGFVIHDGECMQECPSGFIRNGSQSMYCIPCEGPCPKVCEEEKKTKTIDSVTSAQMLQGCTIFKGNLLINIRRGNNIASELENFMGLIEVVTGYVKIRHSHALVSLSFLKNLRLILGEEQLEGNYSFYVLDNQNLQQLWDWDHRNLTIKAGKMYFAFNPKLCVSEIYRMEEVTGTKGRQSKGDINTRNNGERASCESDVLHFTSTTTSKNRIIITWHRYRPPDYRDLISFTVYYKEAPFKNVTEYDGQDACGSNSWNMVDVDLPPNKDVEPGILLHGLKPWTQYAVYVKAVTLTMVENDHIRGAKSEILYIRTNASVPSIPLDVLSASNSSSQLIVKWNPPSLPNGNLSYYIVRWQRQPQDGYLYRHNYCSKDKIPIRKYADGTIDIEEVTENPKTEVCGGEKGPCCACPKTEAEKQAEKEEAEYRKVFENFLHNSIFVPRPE
Insulin-like growth factor 1 receptor (Homo sapiens), sequence (P08069 741-1367 limits assumed): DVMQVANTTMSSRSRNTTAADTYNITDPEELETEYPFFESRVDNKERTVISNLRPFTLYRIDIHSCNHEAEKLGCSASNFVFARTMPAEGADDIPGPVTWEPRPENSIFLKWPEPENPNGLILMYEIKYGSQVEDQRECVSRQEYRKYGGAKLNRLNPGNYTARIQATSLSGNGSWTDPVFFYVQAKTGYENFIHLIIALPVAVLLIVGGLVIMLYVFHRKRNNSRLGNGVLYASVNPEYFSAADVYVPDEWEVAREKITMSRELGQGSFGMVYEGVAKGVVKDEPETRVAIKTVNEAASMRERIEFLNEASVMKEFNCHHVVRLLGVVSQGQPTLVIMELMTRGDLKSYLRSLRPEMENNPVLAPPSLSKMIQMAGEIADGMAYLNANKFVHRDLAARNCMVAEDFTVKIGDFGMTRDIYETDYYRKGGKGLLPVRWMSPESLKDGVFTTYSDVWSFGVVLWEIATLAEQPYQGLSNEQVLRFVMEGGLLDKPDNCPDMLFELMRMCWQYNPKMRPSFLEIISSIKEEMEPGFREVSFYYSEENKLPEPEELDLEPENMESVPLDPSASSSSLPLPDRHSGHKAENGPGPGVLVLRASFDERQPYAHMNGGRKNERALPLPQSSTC

[45] = target: Tyrosine-protein kinase Blk (Homo sapiens) (UniProt P51451); settings: Compound concentration 1000.0 nM

Cc1c(NC(=O)c2cc(C(N)=O)nc3cc(F)ccc23)c(C(F)(F)F)nn1Cc1ccc(C(C)(C)C)cc1 [BAY-588]
inactive: residual activity [1] 100% | residual activity [2] 100% | residual activity [3] 100% | residual activity [4] 87% | residual activity [5] 83% | residual activity [6] 99% | residual activity [7] 100% | inhibition [8] 23.1% | residual activity [9] 100% | inhibition [10] 8.32% | residual activity [11] 98% | residual activity [12] 100% | residual activity [13] 100% | residual activity [14] 100% | residual activity [15] 100% | residual activity [16] 96% | residual activity [17] 95% | residual activity [18] 91% | residual activity [19] 100% | residual activity [20] 98% | residual activity [21] 100% | residual activity [22] 100% | residual activity [23] 100% | residual activity [24] 100% | residual activity [25] 100% | residual activity [26] 94% | residual activity [27] 90% | residual activity [28] 100% | residual activity [29] 82% | residual activity [30] 87% | residual activity [31] 100% | residual activity [32] 100% | residual activity [33] 86% | residual activity [34] 94% | residual activity [35] 65% | residual activity [36] 84% | residual activity [37] 100% | residual activity [38] 100% | residual activity [39] 90% | residual activity [40] 56% | residual activity [41] 100% | residual activity [42] 97% | residual activity [43] 100% | residual activity [44] 100% | residual activity [45] 72%

Cc1c(NC(=O)c2cc(C(N)=O)nc3cc(F)ccc23)c(C(F)(F)F)nn1Cc1ccc(C#N)cc1 [BAY-876]
inactive: residual activity [1] 61% | residual activity [2] 95% | residual activity [3] 88% | residual activity [4] 78% | residual activity [5] 94% | residual activity [6] 95% | residual activity [7] 100% | inhibition [8] 0.0425% | residual activity [9] 85% | inhibition [10] -2.35% | residual activity [11] 98% | residual activity [12] 88% | residual activity [13] 81% | residual activity [14] 99% | residual activity [15] 85% | residual activity [16] 61% | residual activity [17] 100% | residual activity [18] 100% | residual activity [19] 100% | residual activity [20] 90% | residual activity [21] 86% | residual activity [22] 90% | residual activity [23] 78% | residual activity [24] 71% | residual activity [25] 100% | residual activity [26] 84% | residual activity [27] 88% | residual activity [28] 66% | residual activity [29] 88% | residual activity [30] 80% | residual activity [31] 100% | residual activity [32] 59% | residual activity [33] 93% | residual activity [34] 100% | residual activity [35] 67% | residual activity [36] 100% | residual activity [37] 77% | residual activity [38] 82% | residual activity [39] 89% | residual activity [40] 86% | residual activity [41] 72% | residual activity [42] 77% | residual activity [43] 100% | residual activity [44] 100% | residual activity [45] 77%
